US11732264B2, “Compositions and methods for treating COVID-19” (Vast Sea Biotechnology, Inc., priority 2020, dated 2023)
Like-named read-outs stand apart in the source and are kept apart here. d = 2'-deoxy (DNA); r = 2'-OH (RNA)

How the values were obtained:
Format in all cases: cell-based
SARS-CoV-2 N-protein [1] = conditions: HSAEC, qRT-PCR
SARS-CoV-2 N-protein [2] = conditions: HBTEC, qRT-PCR
SARS-CoV-2 N-protein [3] = conditions: HNEpC, qRT-PCR
[4] = oligos 24-48 hours, with lipofectamine
[5] = oligos 24-48 hours, lipofectamine or Arginine not stated at the result

Substance | down-regulation of SARS-CoV-2 N-protein expression (SARS-CoV-2 N-protein [1]; [4]) | down-regulation of SARS-CoV-2 N-protein expression (SARS-CoV-2 N-protein [2]; [4]) | down-regulation of SARS-CoV-2 N-protein expression (SARS-CoV-2 N-protein [3]; [5]) | down-regulation of SARS-CoV-2 N-protein expression (SARS-CoV-2 N-protein [1]; oligo 24-48 hours, without any reagents) | down-regulation of SARS-CoV-2 N-protein expression (SARS-CoV-2 N-protein [2]; without any reagents) | down-regulation of SARS-CoV-2 N-protein expression (SARS-CoV-2 N-protein [3]; without any reagents)
TGTTAATTGGAACGCCTTGTC (Cy3 label, position not given here) [VS_ASO_2-Cy3] | about 1.5 fold | about 6 fold | about 15 fold |  |  | 
TGTTAATTGGAACGCCTTGTC (FANA modified, pattern not given here, FITC label) [VS_ASO_1-FANA-FITC] |  |  |  | about 6 fold | about 8 fold | about 350 fold
VS_DsiRNA-Cy5: DsiRNA SEQ ID NOs: 23 & 24, target N-protein, Cy5 labeled (chain 1 AAACUAAAAUGUCUGAUAAUGGACC; chain 2 GGUCCAUUAUCAGACAUUUUAGUUUGU; chain 1: sugars from the 5' end r23 d2, backbone not given here; chain 2: chemistry not given here; Cy5 label) | about 5 fold | about 4 fold | about 90 fold |  |  | 
